The results in this text go back to patent publication US20230416228A1 (Forkhead Biotherapeutics, Inc., priority 2020, published 2023).

Each structure is given as a SMILES string.

The IC50 is the concentration that inhibits the measured activity by half. Low values mean greater potency, high ones weaker potency.

In the test the target is T1, human FOXO1 (constitutively active form Thr24Ala, Ser256Ala, Ser319Ala) (Homo sapiens, UniProt Q12778, S256A/S319A/T24A).
T1 construct: expressed in transfected cells; host or cells: HEK293 cells transfected with pcDNA3.1 plasmid
T1 sequence (Q12778 whole entry T24A/S256A/S319A): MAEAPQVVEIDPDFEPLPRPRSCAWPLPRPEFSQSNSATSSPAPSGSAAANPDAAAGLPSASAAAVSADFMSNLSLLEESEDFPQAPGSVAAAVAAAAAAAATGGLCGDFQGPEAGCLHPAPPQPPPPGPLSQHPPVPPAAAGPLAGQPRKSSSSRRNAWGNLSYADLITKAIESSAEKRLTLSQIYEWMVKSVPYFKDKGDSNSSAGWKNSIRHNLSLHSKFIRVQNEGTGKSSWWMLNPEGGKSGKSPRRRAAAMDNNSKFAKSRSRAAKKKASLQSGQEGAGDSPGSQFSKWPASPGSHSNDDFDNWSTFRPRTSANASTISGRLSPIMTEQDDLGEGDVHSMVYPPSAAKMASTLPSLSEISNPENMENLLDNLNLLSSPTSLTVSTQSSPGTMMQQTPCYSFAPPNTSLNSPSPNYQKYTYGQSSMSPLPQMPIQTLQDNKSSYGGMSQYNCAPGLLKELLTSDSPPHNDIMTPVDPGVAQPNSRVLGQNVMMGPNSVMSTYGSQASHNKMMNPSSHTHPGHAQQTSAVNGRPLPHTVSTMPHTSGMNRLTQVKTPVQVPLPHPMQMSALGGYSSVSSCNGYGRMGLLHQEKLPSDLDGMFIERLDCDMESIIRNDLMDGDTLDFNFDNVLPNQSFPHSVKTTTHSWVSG
The test is described as follows: FOXO1 inhibitor activity assay: cell-based transcriptional (luciferase) reporter assay in HEK293 cells. Particulars: HEK293 cells transfected with insulin response element firefly luciferase reporter, FOXO1 and Renilla luciferase; 10-point dose response 50 μM to 2.5 nM; 24 hours. An outline of the steps:
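IC50 and maximal inhibition were fitted by 4-parameter logistic regression on normalized firefly/Renilla luciferase ratios. The 0% reference used RFP in place of FOXO1, and the 100% reference was DMSO-only with all plasmids.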
`Cn1nc(NC(=O)c2ccc(N3CCC(CO)CC3)nc2)cc1-c1nc2cccc(F)c2[nH]1` [Compound A-136, N-[5-(4-fluoro-1H-benzimidazol-2-yl)-1-methyl-pyrazol-3-yl]-6-[4-(hydroxymethyl)-1-piperidyl]pyridine-3-carboxamide] showed an IC50 of 100 to 300 nM.

Turning to `COc1ccc(C(=O)Nc2cc(-c3nc4cc(N5CCN(C)CC5)ccc4[nH]3)[nH]n2)cc1Cl` [Compound A-261, 3-chloro-4-methoxy-N-[5-[5-(4-methylpiperazin-1-yl)-1H-benzimidazol-2-yl]-1H-pyrazol-3-yl]benzamide], the 50% inhibitory concentration (IC50) was less than 100 nM.

Molecule `CC(=O)N1CCN(c2ccc(C(=O)Nc3cc(-c4nc5ccccc5[nH]4)n(C)n3)cn2)CC1` [A-231, 6-(4-acetylpiperazin-1-yl)-N-[5-(1H-benzimidazol-2-yl)-1-methyl-pyrazol-3-yl]pyridine-3-carboxamide] showed an IC50 of less than 100 nM.

Molecule `O=C(Nc1cc(-c2nc3cccc(F)c3[nH]2)[nH]n1)c1ccc(N2CCOCC2)nc1` [Compound A-85, N-[5-(7-fluoro-1H-benzimidazol-2-yl)-1H-pyrazol-3-yl]-6-morpholino-pyridine-3-carboxamide] had an IC50 of less than 100 nM.

With `O=C(Nc1cc(-c2nc3ccccc3[nH]2)[nH]n1)c1ccc(N2CCCC(O)C2)nc1` (centres unmarked) [Compound A-66, N-[5-(1H-benzimidazol-2-yl)-1H-pyrazol-3-yl]-6-(3-hydroxy-1-piperidyl)pyridine-3-carboxamide], the IC50 lay within 300 to 1000 nM.

For `O=C(Nc1cc(-c2nc3ccccc3[nH]2)[nH]n1)c1ccc(N2CCC(N3CCOCC3)CC2)nc1` [Compound A-172, N-[5-(1H-benzimidazol-2-yl)-1H-pyrazol-3-yl]-6-(4-morpholino-1-piperidyl)pyridine-3-carboxamide], the IC50 was less than 100 nM.

The molecule `CC1CN(c2ccc(C(=O)Nc3cc(-c4nc5ccccc5[nH]4)n(C)n3)cn2)CC(CO)O1` (single isomer, unassigned) [Compound A-293, N-[5-(1H-benzimidazol-2-yl)-1-methyl-pyrazol-3-yl]-6-[2-(hydroxymethyl)-6-methyl-morpholin-4-yl]pyridine-3-carboxamide] gave a half-maximal inhibitory concentration (IC50) of 100 to 300 nM.

With `CC1CN(c2ccc(C(=O)Nc3cc(-c4nc5ccccc5[nH]4)n(C)n3)cn2)CC(CO)O1` (single isomer, unassigned) [Compound A-295, N-[5-(1H-benzimidazol-2-yl)-1-methyl-pyrazol-3-yl]-6-[2-(hydroxymethyl)-6-methyl-morpholin-4-yl]pyridine-3-carboxamide], the IC50 is less than 100 nM.

The molecule `CC1(O)CCCN(c2ccc(C(=O)Nc3cc(-c4nc5ccccc5[nH]4)[nH]n3)cn2)C1` (centres unmarked) [Compound A-59, N-[5-(1H-benzimidazol-2-yl)-1H-pyrazol-3-yl]-6-(3-hydroxy-3-methyl-1-piperidyl)pyridine-3-carboxamide] had a half-inhibitory concentration (IC50) of 300 to 1000 nM.

For `COCCn1nc(NC(=O)c2ccc(N3CCN(C)CC3)cc2)cc1-c1nc2ccccc2[nH]1` [Compound A-185, N-[5-(1H-benzimidazol-2-yl)-1-(2-methoxyethyl)pyrazol-3-yl]-4-(4-methylpiperazin-1-yl)benzamide], the half-maximal inhibitory concentration (IC50) is more than 1000 nM.

Take `Cn1nc(NC(=O)c2ccc(N3CCC(N4CCOCC4)CC3)nc2)cc1-c1nc2ccccc2[nH]1` [Compound A-208, N-[5-(1H-benzimidazol-2-yl)-1-methyl-pyrazol-3-yl]-6-(4-morpholino-1-piperidyl)pyridine-3-carboxamide]: the 50% inhibitory concentration (IC50) is 100 to 300 nM.

As for `Cn1nc(NC(=O)c2ccc(N3CCN4CCCC4C3)nc2)cc1-c1nc2ccccc2[nH]1` (centres unmarked) [Compound A-279], the concentration for half-maximal inhibition (IC50) is less than 100 nM.

The molecule `O=C(Nc1cc(-c2nc3cc(C(F)(F)F)ccc3[nH]2)[nH]n1)c1ccc(N2CCC(O)CC2)nc1` [Compound A-105, 6-(4-hydroxy-1-piperidyl)-N-[5-[5-(trifluoromethyl)-1H-benzimidazol-2-yl]-1H-pyrazol-3-yl]pyridine-3-carboxamide] had an IC50 of more than 1000 nM.

With `CN1CCN(c2ccc(C(=O)Nc3cc(-c4nc5ccccc5[nH]4)n(C)n3)cn2)CC1` [Compound A-209, N-[5-(1H-benzimidazol-2-yl)-1-methyl-pyrazol-3-yl]-6-(4-methyl-piperazin-1-yl)pyridine-3-carboxamide], the IC50 is less than 100 nM.

On to `Cn1nc(NC(=O)c2ccc(N3CC4CCC(C3)N4)nc2)cc1-c1nc2ccccc2[nH]1` [Compound A-286, N-[5-(1H-benzimidazol-2-yl)-1-methyl-pyrazol-3-yl]-6-(3,8-diazabicyclo[3.2.1]octan-3-yl)pyridine-3-carboxamide], for which the IC50 is 100 to 300 nM.

For `O=C(NCc1ccccc1)Nc1cc(-c2nc3ccccc3[nH]2)[nH]n1` [Compound A-138, 1-[5-(1H-benzimidazol-2-yl)-1H-pyrazol-3-yl]-3-benzyl-urea], the IC50 was more than 1000 nM.

`O=C(Nc1ccccc1)Nc1cc(-c2nc3ccccc3[nH]2)[nH]n1` [Compound A-140, 1-[5-(1H-benzimidazol-2-yl)-1H-pyrazol-3-yl]-3-phenyl-urea] registered an IC50 of more than 1000 nM.

Molecule `COc1cc(F)c2[nH]c(-c3cc(NC(=O)c4ccc(N5CCOC(CO)C5)nc4)n[nH]3)nc2c1` (centres unmarked) [Compound A-239, N-[5-(7-fluoro-5-methoxy-1H-benzimidazol-2-yl)-1H-pyrazol-3-yl]-6-[2-(hydroxymethyl)morpholin-4-yl]pyridine-3-carboxamide] came in with an IC50 of more than 1000 nM.

Regarding `CN1CCN(c2ccc(C(=O)Nc3cc(-c4nc5ccccc5[nH]4)[nH]n3)cc2)CC1=O` [Compound A-242, N-[5-(1H-benzimidazol-2-yl)-1H-pyrazol-3-yl]-4-(4-methyl-3-oxo-piperazin-1-yl)benzamide], the IC50 fell in the range of 100 to 300 nM.

The molecule `COc1cc(F)c2[nH]c(-c3cc(NC(=O)c4ccc(N5CCOC(CO)C5)nc4)nn3C)nc2c1` (centres unmarked) [Compound A-237, N-[5-(7-fluoro-5-methoxy-1H-benzimidazol-2-yl)-1-methyl-pyrazol-3-yl]-6-[2-(hydroxymethyl)morpholin-4-yl]pyridine-3-carboxamide] displayed an IC50 of less than 100 nM.

As for `COCCCOc1ccc(C(=O)Nc2cc(-c3nc4ccccc4[nH]3)[nH]n2)cc1Cl` [Compound A-53, N-[5-(1H-benzimidazol-2-yl)-1H-pyrazol-3-yl]-3-chloro-4-(3-methoxy-propoxy)benzamide], the IC50 is less than 100 nM.

Molecule `O=C(Nc1cc(-c2nc3ccccc3[nH]2)[nH]n1)c1ccc(N2CC[C@@H](O)C2)cc1` [Compound A-40, N-[5-(1H-benzimidazol-2-yl)-1H-pyrazol-3-yl]-4-[(3R)-3-hydroxypyrrolidin-1-yl]benzamide] had a half-maximal inhibitory concentration (IC50) of less than 100 nM.

`Cn1nc(NC(=O)c2ccc(N3CCN(C(=O)COCCO)CC3)nc2)cc1-c1nc2ccccc2[nH]1` [Compound A-287, N-[5-(1H-benzimidazol-2-yl)-1-methyl-pyrazol-3-yl]-6-[4-[2-(2-hydroxyethoxy)acetyl]piperazin-1-yl]pyridine-3-carboxamide] came in with an IC50 of 300 to 1000 nM.
